We go through 18 compounds from ChEMBL document CHEMBL3751751, “Targeting quorum sensing by designing azoline derivatives to inhibit the N-hexanoyl homoserine lactone-receptor CviR: Synthesis as well as biological and theoretical evaluations” (Bioorg Med Chem, 2015).

The target in series [1] is T1, CviR transcriptional regulator (Chromobacterium violaceum, UniProt D3W065).
T1 sequence (D3W065 whole entry): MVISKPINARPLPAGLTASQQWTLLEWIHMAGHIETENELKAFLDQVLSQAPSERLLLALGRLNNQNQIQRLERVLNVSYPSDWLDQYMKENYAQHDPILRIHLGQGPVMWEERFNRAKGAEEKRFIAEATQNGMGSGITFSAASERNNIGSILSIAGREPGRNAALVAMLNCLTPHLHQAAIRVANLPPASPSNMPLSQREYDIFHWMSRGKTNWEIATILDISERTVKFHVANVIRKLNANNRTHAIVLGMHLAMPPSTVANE
Nature of the series: Inhibition of CviR in Chromobacterium violaceum CV026 assessed as reduction of violacein production after 15 hrs.

Series [2] concerns the target T2, CviR transcriptional regulator (Chromobacterium violaceum) (UniProt D3W065).
T2 sequence (whole entry): T1 sequence (D3W065 whole entry)
Kind of series: Agonist activity at CviR in Chromobacterium violaceum CV026 assessed as induction of violacein production at 0.001 to 1000 uM after 15 hrs.

Series [3] addresses T2, CviR transcriptional regulator (Chromobacterium violaceum). Nature of the series: Inhibition of CviR in Chromobacterium violaceum CV026 assessed as reduction of violacein production at 100 uM after 15 hrs.
For series [4] the target is unchanged. Nature of the series: Inhibition of CviR in Chromobacterium violaceum CV026 assessed as reduction of violacein production at 100 nM after 15 hrs.
Series [5] shares this target. Nature of the series: Inhibition of CviR in Chromobacterium violaceum CV026 assessed as reduction of violacein production at 0.1 uM after 15 hrs.
For series [6], the system named is Chromobacterium violaceum. Kind of series: Bactericidal activity in Chromobacterium violaceum CV026 at 1000 uM. It is filed as ADME, organism-based. The following applies: in vivo.
The target of series [7] is T2, CviR transcriptional regulator (Chromobacterium violaceum). Kind of series: Inhibition of CviR in Chromobacterium violaceum CV026 assessed as reduction of violacein production at 0.001 to 1000 uM after 15 hrs.
Series [8] has the same target. Nature of the series: Inhibition of CviR in Chromobacterium violaceum CV026 assessed as reduction of violacein production at 1000 uM after 15 hrs.
For series [9] the target is unchanged. Kind of series: Inhibition of CviR in Chromobacterium violaceum CV026 assessed as reduction of violacein production at 10 to 1000 uM after 15 hrs.
Series [10] deals with Chromobacterium violaceum. Kind of series: Bacteriostatic activity in Chromobacterium violaceum CV026 at 100 uM. The format is ADME, organism-based. The following applies: in vivo.
The subject of series [11] is Chromobacterium violaceum. Nature of the series: Bactericidal activity in Chromobacterium violaceum CV026 at 1 mM. The format is ADME, organism-based. The following applies: in vivo, 1000 µM.
Series [12] deals with T2, CviR transcriptional regulator (Chromobacterium violaceum). Kind of series: Inhibition of CviR in Chromobacterium violaceum CV026 assessed as reduction of violacein production at 1 nM after 15 hrs.

SMILES strings stand for the structures. pIC50: −log10 of the molar value. Calls of active or inactive are those of the source. The rule behind the calls is not given here.

Turning to `CCCCCCOc1ccc(C2=NCCN2)cc1`, the pIC50 in series [1] was 4.04. Besides, the outcome in [2] was inactive. Besides, in series [3], the inhibition entry is “Active”.
`CCCCCCCCCC(=O)NC1CCOC1=O` (stereo unspecified): the inhibition in series [4] turned out to be 51%. Moreover, in [2], the result was inactive.
For the compound `CCCCCCOc1ccc(C2=NCCO2)cc1`, the pIC50 in series [1] was 4.01. Besides, the result in [2] was inactive. In addition, in [3], the inhibition entry was “Active”.
For the compound `CCCCCC(=O)Nc1ccc(C2=NCCN2)cc1`, the inhibition result in [5] was “Active”. In addition, the result in series [2] was inactive.
For the compound `CCCCCCCCCOc1ccc(C2=NCCCN2)cc1`, the result in series [2] was inactive. Also, in series [6], the Activity entry was “Toxic”.
Take `CCCCCCCCCCCC(=O)NC1=NCCS1`: in [2], the outcome was inactive. For the same compound, the inhibition entry in series [7] was “inactive”.
For `CCCCCCCCC(=O)NC1=NCCS1`, in series [2], the result was inactive. In [7], the inhibition result was “inactive”.
In the case of `O=C(NC1=NCCN1)c1ccccc1`, the result in series [2] was inactive. Further, the inhibition entry in series [7] was “inactive”.
As for `O=C(Cc1ccccc1)NC1=NCCS1`, in series [1], the pIC50 was 3.17. For the same compound, the inhibition entry in [8] is “Active”. For the same compound, in [2], the outcome was inactive.
`CCCCCC(=O)NC1CCOC1=O` (stereo unspecified): the result in series [2] was inactive.
As for `O=C(NC1=NCCS1)c1ccccc1`, the result in [2] was inactive. The inhibition entry in [7] was “inactive”.
Regarding `O=C(COc1ccc(C2=NCCN2)cc1)Nc1ccccc1`, in [1], the negative logarithm of the IC50 (pIC50) was 4.18. In addition, the result in series [2] was inactive. For the same compound, the inhibition result in series [9] is “Active”.
Regarding `CCCCCCCCCOc1ccc(C2=NCCN2)cc1`, the result in series [2] was inactive. Further, the Activity entry in series [10] and in [11] was “Toxic” in each case.
Take `CCCCCCOc1ccccc1`: the outcome in series [2] was inactive. Besides, the inhibition result in series [7] is “inactive”.
As for `CCCCCCCCC(=O)Nc1ccc(C2=NCCN2)cc1`, the inhibition was determined as 14% in [12] and 49% in series [3]. In series [2], the result was inactive.
For the compound `CCCCCC(=O)NC1=NCCS1`, the outcome in [2] was inactive. Moreover, the inhibition entry in [7] was “inactive”.
On to `COc1ccc(NC(=O)COc2ccc(C3=NCCN3)cc2)cc1`, for which the negative logarithm of the IC50 (pIC50) in series [1] was 3.47. For the same compound, the result in series [2] was inactive. Further, the inhibition entry in [9] was “Active”.
For the compound `O=C(COc1ccc(C2=NCCN2)cc1)Nc1ccc(Cl)cc1`, the outcome in series [2] was inactive.

One may read the pIC50 as the negative decadic logarithm of the IC50, by convention in mol/L. For orientation: inhibition means the change of the read-out against control, counted positive when it falls.
